This is an account of results in patent publication US12440481B2, “Esters and carbamates as modulators of sodium channels” (VERTEX PHARMACEUTICALS INCORPORATED, priority 2019, dated 2025).

In this test the target is human NaV 1.8 (Homo sapiens, UniProt Q9Y5Y9). The test can be described thus: E-VIPR Assay for Detecting and Measuring NaV Inhibition Properties. Type of test: cell-based. The following applies: HEK cells expressing a truncated form of human NaV 1.8; HS = human serum; read-out: EVIPR HS IC50. The text has this: E-VIPR Assay for Detecting and Measuring NaV Inhibition Properties
Sodium ion channels are voltage-dependent proteins that can be activated by inducing membrane voltage changes by applying electric fields. The electrical stimulation instrument and methods of use, referred to as E-VIPR, are described in International Publication No. WO 2002/008748 A3 and C.-J. Huang et al. Characterization of voltage-gated sodium channel blockers by electrical stimulation and fluorescence detection of membrane potential, 24 Nature Biotech. 439-46 (2006), both of which are incorporated by reference in their entirety. The instrument comprises a microtiter plate handler, an optical system for exciting the coumarin dye while simultaneously recording the coumarin and oxonol emissions, a waveform generator, a current- or voltage-controlled amplifier, and parallel electrode pairs that are inserted into assay plate wells. Under integrated computer control, this instrument passes user-programmed electrical stimulus protocols to cells within the wells of the microtiter plate.
16-20 hours prior to running the assay on E-VIPR, HEK cells expressing a truncated form of human NaV 1.8 with full channel activity were seeded into microtiter 384-well plates, pre-coated with matrigel, at a density of 25,000 cells per well. 2.5-5% KIR2.1 Bacmam virus was added to the final cell suspension before seeding into cell plates. HEK cells were grown in Dulbecco's Modified Eagle's Medium (DMEM) supplemented with 10% FBS (Fetal Bovine Serum, qualified; Sigma #F4135), 1% NEAA (Non-Essential Amino Acids, Gibco #11140), 1% HEPES (Gibco #15630), 1% Pen-Strep (Penicillin-Streptomycin; Gibco #15140) and 5 μg/ml Blasticidin (Gibco #R210-01). Cells were expanded in vented cap cell culture flasks, with 90-95% humidity and 5% CO2.
Reagents and Stock Solutions:
• 100 mg/mL Pluronic F-127 (Sigma #P2443), in dry DMSO • Compound Plates: Corning 384-well Polypropylene Round Bottom #3656 • Cell Plates: 384-well tissue culture treated plates (Greiner #781091-1B) • 2.5-5% KIR 2.1 Bacmam virus (produced in-house), prepared as described in Section 3.3 of J. A. Fornwald et al., Gene Expression in Mammalian Cells Using BacMam, a Modified Baculovirus System, 1350 Methods in Molecular Biology 95-116 (2016), the entire contents of which are incorporated by reference. The concentration used can be dependent on viral titer of each batch. • 5 mM DiSBAC6 (3), a voltage sensitive oxonol acceptor (CAS number 169211-44-3; 5-[3-(1,3-dihexylhexahydro-4,6-dioxo-2-thioxo-5-pyrimidinyl)-2-propen-1-ylidene]-1,3-dihexyldihydro-2-thioxo-4,6(1H,5H)-pyrimidinedione), in dry DMSO. The preparation of DiSBAC6 (3) is analogous to that of DiSBAC4 (3) as described in Voltage Sensing by Fluorescence Resonance Energy Transfer in Single Cells, Gonzalez, J. E. and Tsien, R. Y. (1995) Biophys. J. 69, 1272-1280. • 5 mM CC2-DMPE, a commercially available membrane-bound coumarin phospholipid FRET donor (ThermoFisher Scientific catalog number K1017, CAS number 393782-57-5; tetradecanoic acid, 1,1′-[(1R)-1-[8-(6-chloro-7-hydroxy-2-oxo-2H-1-benzopyran-3-yl)-3-hydroxy-3-oxido-8-oxo-2,4-dioxa-7-aza-3-phosphaoct-1-yl]-1,2-ethanediyl] ester) was prepared in dry DMSO. […]

Chain of human NaV 1.8 (Q9Y5Y9 whole entry, looked up, the tested form may be a part): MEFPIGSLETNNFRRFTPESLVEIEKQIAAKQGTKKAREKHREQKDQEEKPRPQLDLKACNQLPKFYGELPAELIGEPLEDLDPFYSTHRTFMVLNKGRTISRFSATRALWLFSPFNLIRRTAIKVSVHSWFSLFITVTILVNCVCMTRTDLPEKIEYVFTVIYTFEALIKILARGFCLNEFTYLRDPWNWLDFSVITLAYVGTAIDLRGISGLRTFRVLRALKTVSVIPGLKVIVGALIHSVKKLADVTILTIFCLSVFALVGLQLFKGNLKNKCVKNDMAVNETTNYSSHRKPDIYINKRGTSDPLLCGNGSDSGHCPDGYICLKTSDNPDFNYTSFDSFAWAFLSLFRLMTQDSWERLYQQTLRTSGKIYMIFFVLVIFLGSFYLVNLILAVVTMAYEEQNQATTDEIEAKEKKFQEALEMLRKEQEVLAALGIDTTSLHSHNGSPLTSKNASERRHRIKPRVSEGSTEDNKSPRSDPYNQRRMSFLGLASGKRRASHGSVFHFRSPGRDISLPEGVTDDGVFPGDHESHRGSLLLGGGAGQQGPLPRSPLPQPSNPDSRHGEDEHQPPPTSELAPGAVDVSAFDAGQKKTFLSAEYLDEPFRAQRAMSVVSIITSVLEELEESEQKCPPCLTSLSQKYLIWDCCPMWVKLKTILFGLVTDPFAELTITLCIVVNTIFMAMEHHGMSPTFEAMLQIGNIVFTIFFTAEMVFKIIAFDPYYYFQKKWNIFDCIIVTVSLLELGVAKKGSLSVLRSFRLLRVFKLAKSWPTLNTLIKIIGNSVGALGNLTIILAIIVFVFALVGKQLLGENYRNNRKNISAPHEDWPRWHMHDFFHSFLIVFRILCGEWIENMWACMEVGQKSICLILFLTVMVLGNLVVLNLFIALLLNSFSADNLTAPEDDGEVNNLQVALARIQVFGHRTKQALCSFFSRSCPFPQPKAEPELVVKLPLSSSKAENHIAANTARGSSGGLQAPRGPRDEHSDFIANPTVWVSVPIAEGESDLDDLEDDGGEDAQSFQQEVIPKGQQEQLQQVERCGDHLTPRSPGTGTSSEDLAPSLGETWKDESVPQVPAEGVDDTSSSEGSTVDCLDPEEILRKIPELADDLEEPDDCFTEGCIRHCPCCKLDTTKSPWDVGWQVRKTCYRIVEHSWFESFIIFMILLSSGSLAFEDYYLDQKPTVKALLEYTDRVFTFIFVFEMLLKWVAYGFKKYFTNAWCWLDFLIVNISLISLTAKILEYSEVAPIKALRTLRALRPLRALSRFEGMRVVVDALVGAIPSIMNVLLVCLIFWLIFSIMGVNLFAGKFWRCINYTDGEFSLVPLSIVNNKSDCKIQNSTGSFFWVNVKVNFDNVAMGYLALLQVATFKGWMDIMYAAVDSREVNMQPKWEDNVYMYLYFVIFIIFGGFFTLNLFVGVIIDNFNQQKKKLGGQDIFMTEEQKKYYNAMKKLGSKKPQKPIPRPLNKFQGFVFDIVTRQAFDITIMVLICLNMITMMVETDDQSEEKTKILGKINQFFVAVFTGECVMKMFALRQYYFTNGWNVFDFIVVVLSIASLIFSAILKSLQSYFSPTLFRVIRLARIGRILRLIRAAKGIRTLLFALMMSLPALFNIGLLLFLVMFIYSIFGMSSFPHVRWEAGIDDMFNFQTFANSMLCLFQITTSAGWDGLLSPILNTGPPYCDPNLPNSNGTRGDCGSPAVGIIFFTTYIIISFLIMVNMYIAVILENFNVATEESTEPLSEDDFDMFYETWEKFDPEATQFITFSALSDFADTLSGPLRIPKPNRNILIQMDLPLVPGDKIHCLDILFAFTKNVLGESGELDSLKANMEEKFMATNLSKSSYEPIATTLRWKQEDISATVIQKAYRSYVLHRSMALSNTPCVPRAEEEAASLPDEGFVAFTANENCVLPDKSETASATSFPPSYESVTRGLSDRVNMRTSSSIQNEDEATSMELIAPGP

As usually defined, the IC50 is the concentration that gives 50% inhibition. With `[2H]C([2H])([2H])Oc1cc(OC(F)(F)F)ccc1Oc1ccc(C(F)(F)F)cc1C(=O)Nc1ccnc(NC(=O)OC(C)(C)C)c1` [Compound 9, tert-butyl N-[4-[[2-[2-(trideuteriomethoxy)-4-(trifluoromethoxy)phenoxy]-5-(trifluoromethyl)benzoyl]amino]-2-pyridyl]carbamate], the IC50 was not below 1 µM.

For `COC(=O)c1cc(NC(=O)c2c(Oc3ccc(OC(F)(F)F)cc3OC)ccc(C(F)(F)F)c2F)c(C2CC2)cn1` [Compound 26, methyl 5-cyclopropyl-4-(2-fluoro-6-(2-methoxy-4-(trifluoromethoxy)phenoxy)-3-(trifluoromethyl)benzamido)picolinate], the IC50 was not below 1 µM.

As to `[2H]C([2H])([2H])Oc1cc(OC(F)(F)F)ccc1Oc1ccc(C(F)(F)F)c(F)c1C(=O)Nc1ccc(C(=O)OC)nc1` [Compound 11, methyl 5-[[2-fluoro-6-[2-(trideuteriomethoxy)-4-(trifluoromethoxy)phenoxy]-3-(trifluoromethyl)benzoyl]amino]pyridine-2-carboxylate], the IC50 was 0.1 to 0.5 µM.

As for `COC(=O)c1nccc(NC(=O)c2c(Oc3ccc(OC(F)(F)F)c(F)c3OC)ccc(C(F)(F)F)c2F)c1C` [Compound 34, methyl 4-(2-fluoro-6-(3-fluoro-2-methoxy-4-(trifluoromethoxy)phenoxy)-3-(trifluoromethyl)benzamido)-3-methylpicolinate], the IC50 is not below 1 µM.

For `[2H]C([2H])([2H])Oc1cc(OC(F)(F)F)ccc1Oc1cc(C(F)(F)F)c(F)cc1C(=O)Nc1ccc(C(=O)OC)nc1` [Compound 1, Methyl 5-[[5-fluoro-2-[2-(trideuteriomethoxy)-4-(trifluoromethoxy)phenoxy]-4-(trifluoromethyl)benzoyl]amino]pyridine-2-carboxylate], the IC50 was not below 1 µM.

For the compound `COC(=O)c1cc(NC(=O)c2c(Oc3ccc(OC(F)(F)F)cc3)ccc(C(F)(F)F)c2F)ccn1` [Compound 3, methyl 4-[[2-fluoro-6-[4-(trifluoromethoxy)phenoxy]-3-(trifluoromethyl)benzoyl]amino]pyridine-2-carboxylate], the half-inhibitory concentration (IC50) was in the range of 0.1 to 0.5 µM.

`[2H]C([2H])([2H])Oc1cc(OC(F)(F)F)ccc1Oc1ccc(C(F)(F)F)cc1C(=O)Nc1ccc(C(=O)OC)nc1` [Compound 12, methyl 5-[[2-[2-(trideuteriomethoxy)-4-(trifluoromethoxy)phenoxy]-5-(trifluoromethyl)benzoyl]amino]pyridine-2-carboxylate]: the IC50 is not below 1 µM.

Turning to `COC(=O)c1nccc(NC(=O)c2c(Oc3ccc(OC(F)(F)F)c(F)c3OC)ccc(C(F)(F)F)c2F)c1F` [Compound 30], the IC50 lay within 0.1 to 0.5 µM.

With `COC(=O)c1cc(NC(=O)c2c(Oc3ccc(OC(F)(F)F)c(F)c3OC)ccc(C(F)(F)F)c2F)c(C2CC2)cn1` [Compound 27, methyl 5-cyclopropyl-4-(2-fluoro-6-(3-fluoro-2-methoxy-4-(trifluoromethoxy)phenoxy)-3-(trifluoromethyl)benzamido)picolinate], the IC50 is not below 1 µM.

As for `COC(=O)c1ccnc(NC(=O)c2c(Oc3ccc(OC(F)(F)F)c(F)c3OC)ccc(C(F)(F)F)c2C)c1` [Compound 24, Methyl 2-[[6-[3-fluoro-2-methoxy-4-(trifluoromethoxy)phenoxy]-2-methyl-3-(trifluoromethyl)benzoyl]amino]pyridine-4-carboxylate], the IC50 is not below 1 µM.

As to `COC(=O)c1nccc(NC(=O)c2c(Oc3ccc(F)c(F)c3C)ccc(C(F)(F)F)c2C)c1C` [Compound 19, Methyl 4-[[6-(3,4-difluoro-2-methyl-phenoxy)-2-methyl-3-(trifluoromethyl)benzoyl]amino]-3-methyl-pyridine-2-carboxylate], the IC50 was not below 1 µM.

With `COC(=O)c1nccc(NC(=O)c2c(Oc3ccc(OC(F)(F)F)cc3OC)ccc(C(F)(F)F)c2F)c1F` [Compound 29, methyl 3-fluoro-4-(2-fluoro-6-(2-methoxy-4-(trifluoromethoxy)phenoxy)-3-(trifluoromethyl)benzamido)picolinate], the IC50 fell in the range of 0.5 to 1 µM.

Take `COC(=O)c1cc(NC(=O)c2c(Oc3ccc(OC(F)(F)F)cc3OC)ccc(C3CC3)c2C)c(C)cn1` [Compound 2, methyl 4-[[3-cyclopropyl-6-[2-methoxy-4-(trifluoromethoxy)phenoxy]-2-methyl-benzoyl]amino]-5-methyl-pyridine-2-carboxylate]: the IC50 is 0.1 to 0.5 µM.

For `COC(=O)c1ccnc(NC(=O)c2c(Oc3ccc(OC(F)(F)F)c(F)c3OC)ccc(C(F)(F)F)c2F)c1` [Compound 23, Methyl 2-[[2-fluoro-6-[3-fluoro-2-methoxy-4-(trifluoromethoxy)phenoxy]-3-(trifluoromethyl)benzoyl]amino]pyridine-4-carboxylate], the IC50 was 0.5 to 1 µM.

On to `COC(=O)c1cc(NC(=O)c2c(Oc3ccc(OC(F)(F)F)c(F)c3Cl)ccc(C(F)(F)F)c2F)c(C)cn1` [Compound 20, Methyl 4-[[6-[2-chloro-3-fluoro-4-(trifluoromethoxy)phenoxy]-2-fluoro-3-(trifluoromethyl)benzoyl]amino]-5-methyl-pyridine-2-carboxylate], for which the IC50 is less than 0.1 µM.

Regarding `COC(=O)c1cc(NC(=O)c2c(Oc3ccc(OC(F)(F)F)cc3Cl)ccc(C3CC3)c2C)c(C)cn1` [Compound 22, Methyl 4-[[6-[2-chloro-4-(trifluoromethoxy)phenoxy]-3-cyclopropyl-2-methyl-benzoyl]amino]-5-methyl-pyridine-2-carboxylate], the IC50 is not below 1 µM.

Regarding `[2H]C([2H])([2H])Oc1cc(OC(F)(F)F)ccc1Oc1cc(C(F)(F)F)c(F)cc1C(=O)Nc1ccnc(C(=O)OC)c1` [Compound 6, methyl 4-[[5-fluoro-2-[2-(trideuteriomethoxy)-4-(trifluoromethoxy)phenoxy]-4-(trifluoromethyl)benzoyl]amino]pyridine-2-carboxylate], the IC50 is 0.1 to 0.5 µM.

Turning to `[2H]C([2H])([2H])Oc1cc(OC(F)(F)F)ccc1Oc1ccc(C(F)(F)F)cc1C(=O)Nc1ccnc(C(=O)OC)c1` [Compound 8, methyl 4-[[2-[2-(trideuteriomethoxy)-4-(trifluoromethoxy)phenoxy]-5-(trifluoromethyl)benzoyl]amino]pyridine-2-carboxylate], the IC50 was 0.5 to 1 µM.

As to `COC(=O)c1cc(NC(=O)c2c(Oc3ccc(OC(F)(F)F)c(F)c3OC)ccc(C(F)(F)F)c2F)cc(C(=O)OC)n1` [Compound 35, dimethyl 4-(2-fluoro-6-(3-fluoro-2-methoxy-4-(trifluoromethoxy)phenoxy)-3-(trifluoromethyl)benzamido)pyridine-2,6-dicarboxylate], the half-maximal inhibitory concentration (IC50) lay within 0.1 to 0.5 µM.

As for `COC(=O)c1nccc(NC(=O)c2c(Oc3ccc(OC(F)(F)F)cc3OC)ccc(C(F)(F)F)c2F)c1C` [Compound 21, Methyl 4-[[2-fluoro-6-[2-methoxy-4-(trifluoromethoxy)phenoxy]-3-(trifluoromethyl)benzoyl]amino]-3-methyl-pyridine-2-carboxylate], the IC50 is not below 1 µM.

With `COC(=O)c1nccc(NC(=O)c2c(Oc3ccc(OC(F)(F)F)c(F)c3OC)ccc(C(F)(F)F)c2C)c1F` [Compound 31, methyl 3-fluoro-4-(6-(3-fluoro-2-methoxy-4-(trifluoromethoxy)phenoxy)-2-methyl-3-(trifluoromethyl)benzamido)picolinate], the IC50 was not below 1 µM.

As to `COC(=O)c1cc(NC(=O)c2c(Oc3ccc(F)c(F)c3C)ccc(C(F)(F)F)c2C)c(C)cn1` [Compound 18, Methyl 4-[[6-(3,4-difluoro-2-methyl-phenoxy)-2-methyl-3-(trifluoromethyl)benzoyl]amino]-5-methyl-pyridine-2-carboxylate], the IC50 lay within 0.5 to 1 µM.
